Source: US8772489B2, “Optically active 2-hydroxy tetrahydrothienopyridine derivatives, preparation method and use in manufacture of medicament thereof” (Jiangsu Vcare PharmaTech Co. Ltd., priority 2010, dated 2014)
Read-outs that look alike come from different tables or passages of the source.

Assays:
[1] = test system: platelet aggregation; experiment: animal or person; format: in vivo; details: Rattus norvegicus, read-out: Aggregation inhibition (%)
Source text: The positive control and the test compounds (prepared in the above examples) were formulated in 0.5% CMC-Na (carboxymethylcellulose sodium) into suspensions for administration to animals.
Animals: male SD rats, weighed about 250 g, and supplied by Shanghai Super-B&K Laboratory Animal Corp. Ltd. Animal certificate No.: 2008001605451, and license No.: SCXK (Hu); SCXK (Hu) 2008-0016.
Instruments: a centrifuge (80-2 bench top low-speed centrifuge), an automatic platelet aggregation tester (STELLEXLG-PAPER-I platelet coagulation/aggregation analyzer), and others.
Methods: the pharmacological activity test of the compounds of the present invention for platelet aggregation was performed following Born's turbidimetric method (Nature, 1962, 194(4832): 927). An agglomeration-promoting substance, adenosine diphosphate (ADP), was added to a platelet rich plasma (PRP), and stirred to allow platelets to aggregate. […] This experiment can be used to evaluate the platelet aggregation effect induced by the test compounds administrated in-vivo or in-vitro.
The PRP was adjusted with a platelet poor plasma (PPP) to maintain the platelet counts at […]. The PRP was taken into a test cup, and incubated at 37° C. for 10 min. Light transmission was adjusted to 0% with PRP and to 100% with PPP for each measurement. By using ADP (with a final concentration of 5 μM) as an inducer, the platelet aggregation percentages were measured through the turbidimetric method using a platelet aggregation tester, and statistically compared by t-test. The platelet aggregation inhibition was calculated by the equation: platelet aggregation inhibition (%)=[1−(aggregation percent in dosed tube/aggregation percent in control tube)]×100%.

[2] = molecular target: human carboxylesterase 1 (hCE1) (Homo sapiens, UniProt P23141); details: in vivo, J Pharmacol Exp Ther, 2006, 319: 1467; cited from earlier work
[3] = male SD rats, oral gavage 3 mg/kg, blood after 2 hrs, ADP 5 μM

human carboxylesterase 1 (hCE1), sequence (P23141 18-567): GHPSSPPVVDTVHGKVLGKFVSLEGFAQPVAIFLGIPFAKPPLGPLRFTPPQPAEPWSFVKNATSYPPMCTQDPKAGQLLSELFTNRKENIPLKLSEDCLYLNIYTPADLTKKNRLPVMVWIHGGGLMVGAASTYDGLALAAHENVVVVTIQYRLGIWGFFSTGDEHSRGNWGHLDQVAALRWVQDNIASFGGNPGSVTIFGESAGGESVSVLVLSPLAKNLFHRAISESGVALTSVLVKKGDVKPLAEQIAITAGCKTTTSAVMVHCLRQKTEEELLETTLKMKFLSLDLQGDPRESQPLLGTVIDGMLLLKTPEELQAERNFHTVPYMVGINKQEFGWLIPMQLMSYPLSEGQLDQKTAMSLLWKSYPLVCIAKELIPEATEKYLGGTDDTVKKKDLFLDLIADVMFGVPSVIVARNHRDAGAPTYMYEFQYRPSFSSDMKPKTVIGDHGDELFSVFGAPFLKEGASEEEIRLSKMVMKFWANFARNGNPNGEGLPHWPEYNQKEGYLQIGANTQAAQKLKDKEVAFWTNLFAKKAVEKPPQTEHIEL

COC(=O)[C@H](c1ccccc1Cl)N1CCc2sc(OC(=O)c3ccccc3)cc2C1 [Compound I-1, (S)-Methyl 2-(2-benzoyloxy-6,7-dihydrothieno[3,2-c]pyridin-5(4H)-yl)-2-(2-chlorophenyl)-acetate] gave a melting point of 84 to 86 °C and an inhibition at 3 mg/kg [1, 3] of 41.1%.
For COC(=O)[C@H](c1ccccc1Cl)N1CCc2sc(OC(=O)c3cccnc3)cc2C1 [Compound I-6, (S)-methyl 2-(2-nicotinoyloxy-6,7-dihydrothieno[3,2-c]pyridin-5(4H)-yl)-2-(2-chlorophenyl)-acetate], the melting point was 92 to 94 °C and the inhibition at 3 mg/kg [1, 3] was 31.3%.
CCC(C)(C)C(=O)Oc1cc2c(s1)CCN([C@H](C(=O)OC)c1ccccc1Cl)C2 [Compound I-8, (S)-Methyl 2-(2-(2,2-dimethylbutanoyloxy)-6,7-dihydrothieno[3,2-c]pyridin-5(4H)-yl)-2-(2-chlorophenyl)-acetate] showed a melting point of 98 to 100 °C and an inhibition at 3 mg/kg [1, 3] of 35.7%.
COC(=O)[C@H](c1ccccc1Cl)N1CCc2sc(OC(=O)/C=C/c3ccccc3)cc2C1 [Compound I-9, (S)-methyl 2-(2-cinnamoyloxy-6,7-dihydrothieno[3,2-c]pyridin-5(4H)-yl)-2-(2-chlorophenyl)-acetate] showed a melting point of 122 to 124 °C and an inhibition at 3 mg/kg [1, 3] of 30.3%.
COC(=O)[C@H](c1ccccc1Cl)N1CCc2sc(OC(=O)c3ccc([N+](=O)[O-])cc3)cc2C1 [Compound I-10, (S)-methyl 2-(2-(4-nitrobenzoyloxy)-6,7-dihydrothieno[3,2-c]pyridin-5(4H)-yl)-2-(2-chlorophenyl)-acetate] gave a melting point of 100 to 102 °C and an inhibition at 3 mg/kg [1, 3] of 36.8%.
With COC(=O)[C@H](c1ccccc1Cl)N1CCc2sc(OC(=O)COc3ccccc3)cc2C1 [Compound I-13, (S)-Methyl 2-(2-(phenoxyacetoxy)-6,7-dihydrothieno[3,2-c]pyridin-5(4H)-yl)-2-(2-chlorophenyl)-acetate] the melting point was 104 to 106 °C and the inhibition at 3 mg/kg [1, 3] was 10.1%.
Molecule CCOC(=O)Oc1cc2c(s1)CCN([C@H](C(=O)OC)c1ccccc1Cl)C2 [Compound I-14, (S)-Methyl 2-(2-(ethoxycarbonyloxy)-6,7-dihydrothieno[3,2-c]pyridin-5(4H)-yl)-2-(2-chlorophenyl)-acetate] has a melting point of 42 to 44 °C and an inhibition at 3 mg/kg [1, 3] of 62.9%.
COC(=O)[C@H](c1ccccc1Cl)N1CCc2sc(OC(=O)OC(C)C)cc2C1 [Compound I-16, (S)-Methyl 2-(2-(isopropoxycarbonyloxy)-6,7-dihydrothieno[3,2-c]pyridin-5(4H)-yl)-2-(2-chlorophenyl)-acetate] gave an inhibition at 3 mg/kg [1, 3] of 52.7%.
With COC(=O)[C@H](c1ccccc1Cl)N1CCc2sc(OC(=O)N(C)C)cc2C1 [Compound I-18, (S)-Methyl 2-(2-(N,N-dimethylcarbamoyloxy)-6,7-dihydrothieno[3,2-c]pyridin-5(4H)-yl)-2-(2-chlorophenyl)-acetate] the melting point was 96 to 98 °C and the inhibition at 3 mg/kg ([1]; po, 2 h) was 48.2%.
Work on COC(=O)[C@H](c1ccccc1F)N1CCc2sc(OC(C)=O)cc2C1 [Compound I-19, (S)-Methyl 2-(2-acetoxy-6,7-dihydrothieno[3,2-c]pyridin-5 (4H)-yl)-2-(2-fluorophenyl)-acetate] yielded an inhibition at 3 mg/kg [1, 3] of 63.5%.
COC(=O)[C@H](c1ccc(Cl)cc1)N1CCc2sc(OC(C)=O)cc2C1 [Compound I-20, (S)-Methyl 2-(2-acetoxy-6,7-dihydrothieno[3,2-c]pyridin-5(4H)-yl)-2-(4-chlorophenyl)-acetate] gave an inhibition at 3 mg/kg [1, 3] of 17.6%.
COC(=O)[C@H](c1ccccc1)N1CCc2sc(OC(C)=O)cc2C1 [Compound I-21, (S)-Methyl 2-(2-acetoxy-6,7-dihydrothieno[3,2-c]pyridin-5 (4H)-yl)-2-phenyl-acetate] gave an inhibition at 3 mg/kg [1, 3] of 9.1%.
Work on COC(=O)[C@H](c1ccccc1Cl)N1CCc2sc(OC(=O)N3CCCC3)cc2C1 [Compound I-22, (S)-Methyl 2-(2-(pyrrolidine-1-carbonyloxy)-6,7-dihydrothieno[3,2-c]pyridin-5(4H)-yl)-2-(2-chlorophenyl)-acetate] yielded an inhibition at 3 mg/kg ([1]; po, 2 h) of 20.3%.
COC(=O)[C@@H](c1ccccc1Cl)N1CCc2sc(OC(C)=O)cc2C1 [I-2′] gave an inhibition at 3 mg/kg [1, 3] of 27.1% and an inhibition at 10 mg/kg ([1]; male SD rats, oral gavage 10 mg/kg, blood after 2 hrs, ADP 5 μM) of 55.3%.
In the case of COC(=O)[C@H](c1ccccc1Cl)N1CCc2sccc2C1 [clopidogrel], the “share of the prototype drug hydrolyzed by hCE1 in the liver into an inactive carboxylic derivative” value [2] is listed as 85%.
